Data as given in article PMC8765435, “In Vitro Antimalarial Activity of Inhibitors of the Human GTPase Rac1” (Antimicrobial Agents and Chemotherapy, 2022).
Where two headings read alike, the source gives them in different places. Each block holds one compound with its values, some of them ahead of it.

How the values were obtained:
[1] = tested on: 3D7 mature gametocytes; assay: Gametocyte viability luminescence assay, mature gametocytes; format: cell-based, Plasmodium falciparum
Protocol: (§1) Chloroquine (CQ)-sensitive (D10, wild-type 3D7, or transgenic 3D7elo1-pfs16-CBG99) and CQ-resistant (W2) strains of P. falciparum were cultured as described previously ([58]), with slight modifications, as detailed in the supplemental material.
(§2) Asexual parasite growth was determined spectrophotometrically (optical density at 650 nm [OD650]) by measuring the activity of parasite lactate dehydrogenase (pLDH), according to a modified version of the method of Makler et al. ([59]). Gametocyte viability was measured by a luminescence method described previously ([60]). Details for the two methods are reported in the supplemental material. From either the OD or ALU (arbitrary luminescence units), the percentages of viability were calculated according to the formula 100 × (treated sample signal − blank signal)/(untreated control signal − blank signal). The blank for the pLDH assay was uninfected RBCs at the same hematocrit as that of parasitized RBCs, and the blank for the luminescence assay was parasites treated with a high dose of methylene blue. […]
(§3) strain (wild type or transgenic 3D7elo1-pfs16-CBG99 strain) was cultured in similar conditions, except for 10% naturally clotted Human O+ serum instead of AlbuMaxII and human type O-positive instead of A-positive RBCs. […]
(§4) in a standard gas mixture consisting of 1% O2, 5% CO2, 94% N2. Immature (stage II-III) and mature (stage V) gametocytes were obtained as described1. Briefly, cultures were diluted to 0.5% parasitemia at 5% HCT, and the medium was changed daily until parasites were stressed by nutrient deprivation. N-acetylglucosamine (NAG) (Sigma-Aldrich) 50 mM was then added to clear residual asexual parasites: Stage II and III gametocytes were obtained 4 days after NAG addition to the culture, while stage IV and V gametocytes were used 11 to 13 days from NAG addition. Gametocyte stages were routinely checked on Giemsa-stained smears. […]
(§5) Drug treated gametocyte cultures were transferred to 96-well black microplates and D-luciferin (1 mM in citrate buffer 0.1 M, pH 5.5) was added at a 1:1 volume ratio. Luminescence measurements were performed after 10 min with 500 ms integration time. Gametocytes treated

[2] = tested on: 3D7 immature gametocytes; assay: Gametocyte viability luminescence assay, immature gametocytes; format: cell-based, Plasmodium falciparum; settings: 72 h, read-out: Mean IC50 ± SD, 3D7 immature gametocytes
Protocol: as §1, §2, §3, §4, §5

[3] = tested on: P. falciparum asexual parasites, chloroquine-sensitive D10 strain; assay: Drug susceptibility assay (pLDH), asexual parasites, D10 strain; format: cell-based, Plasmodium falciparum; settings: for antimalarial activity (in words): asexual and sexual P. falciparum parasites
Protocol: as §1, §2
(§6) The CQ-sensitive (D10) and the CQ-resistant (W2) strains were maintained at 5% hematocrit […]
(§7) supplemented with 1% AlbuMaxII (lipid-rich bovine serum albumin) (Invitrogen), 0.01% hypoxantine (Sigma), 20mM Hepes (EuroClone), 2 mM glutamine (EuroClone). […]
(§8) In vitro P. falciparum drug susceptibility assay […]
(§9) plate were transferred to a plate containing 100µl of Malstat reagent (0.11% [vol/vol] Triton- […]
(§10) dinucleotide [APAD] [Sigma-Aldrich], adjusted to pH 9 with 1 M HCl) and 25 µl of PES/NBT […]
(§11) pLDHassay. The plate was read at a wavelength of 650 nm using a microplate reader, Synergy4 […]
(§12) Uninfected RBC at the same HCT than parasites were used as blank. […]

[4] = tested on: P. falciparum asexual parasites, chloroquine-resistant W2 strain; assay: Drug susceptibility assay (pLDH), asexual parasites, W2 strain; format: cell-based, Plasmodium falciparum
Protocol: as §1, §2, §6, §7, §8, §9, §10, §11, §12

[5] = tested on: F3II mammary carcinoma cells; design: method as in PMID 24066799; settings: F3II mammary carcinoma cell proliferation; cited from earlier work
[6] = tested on: P. falciparum asexual parasites, chloroquine-resistant W2 strain; design: method as in PMID 33328606; settings: reported previously, read-out: Mean IC50 ± SD, W2; cited from earlier work
[7] = tested on: P. falciparum asexual parasites, chloroquine-sensitive D10 strain; design: method as in PMID 33328606; settings: reported previously, read-out: Mean IC50 ± SD, D10; cited from earlier work
[8] = tested on: HMEC-1 human microvascular endothelial cells; assay: Cell cytotoxicity MTT assay; format: cell-based; settings: for IC50: read-out: Mean HMEC-1 IC50 ± SD; for SI (selectivity index): ratio IC50 against HMEC-1 cells / IC50 against D10 asexual parasites
Protocol: Cytotoxicity was evaluated on human microvascular endothelial cells (HMEC-1) as detailed in the supplemental material. […] Plates were then read on a microplate reader (Synergy 4; BioTek) at a wavelength of 550 nm (reference, 650 nm). […] All tests were performed in duplicate at least three times.
The selectivity index (SI) is the ratio between the cytotoxic IC50 value against HMEC-1 cells and the parasitic IC50 value against the D10 strain and indicates the compound selectivity for the parasite.
Cytotoxicity was evaluated on Human Microvascular Endothelial Cells (HMEC-1) maintained
and 2 mM L-glutamine. Cells were seeded in 96 well flat bottom tissue culture clusters (1.5x104
cells/well), let adhere overnight and treated with serial dilutions of test compounds . […]

[9] = tested on: REF-52 rat embryo fibroblasts; design: method as in PMID 19549603; settings: Actin stress fiber formation in REF-52 rat embryo fibroblasts; cited from earlier work
[10] = tested on: Rac1; design: method as in PMID 21433368; settings: Rac1 activity in EGF-stimulated NIH 3T3 fibroblasts; cited from earlier work
[11] = tested on: Rac1; design: method as in PMID 20008126; settings: Rac1 activity in Swiss 3T3 embryonic mouse fibroblasts; cited from earlier work
[12] = tested on: Rac1; design: method as in PMID 17932039; settings: Rac1 activity in U87MG glioma cells; cited from earlier work
[13] = tested on: Rac1; design: method as in PMID 15128949; settings: Rac1 activity in PDGF-stimulated NIH 3T3 fibroblasts; cited from earlier work
[14] = target: T1, Rac1 (Homo sapiens, UniProt P63000); design: endogenous in cells; method as in PMID 24040362; settings: Rac1 activity in 22Rv1 human prostate cancer cells; cited from earlier work
[15] = target: T1, Rac1; design: endogenous in cells; settings: Rac1 activity in human smooth muscle cells; cited from earlier work
[16] = Plasmodium falciparum, 3D7, stage V gametocytes, 72 h, luminescence, read-out: Mean IC50 ± SD, 3D7 mature gametocytes
[17] = Plasmodium falciparum, 3D7, stage II-III gametocytes
[18] = asexual parasites, CQ-sensitive D10 strain, 72 h, pLDH, read-out: Mean IC50 ± SD, D10
[19] = asexual parasites, CQ-resistant W2 strain, 72 h, pLDH, read-out: Mean IC50 ± SD, W2
[20] = stage V gametocytes, 72 h, luminescence, read-out: Mean IC50 ± SD, 3D7 mature gametocytes
[21] = Plasmodium falciparum, W2, 72 h, asexual parasites, CQ-resistant W2 strain, 72 h, pLDH, read-out: Mean IC50 ± SD, W2
[22] = Homo sapiens, HMEC-1, MTT, 72 h

Compound: CN(C)c1ccc2nc3ccc(=[N+](C)C)cc-3sc2c1 [Methylene blue]
IC50 [1, 16]: 0.12 ± 0.03 µM | IC50 [2, 17]: 0.03 ± 0.01 µM

IC50 [3, 18]: 17.5 ± 4.64 µM | IC50 [4, 19]: 12.6 ± 5.25 µM
Compound: Cc1cc(C)nc(N=C(N)Nc2ccccc2C(F)(F)F)n1 [ZINC69391]
IC50 [5]: 61 µM

Compound: Cc1cc(C)cc(NC(N)=Nc2ccccc2C(F)(F)F)c1 [Compound 1A116]
IC50 [6]: 6.89 ± 1.41 µM | IC50 [7]: 3.21 ± 1.17 µM | IC50 [1, 20]: 56.6 ± 21.3 µM | IC50 ([8]; MTT, 72 h): 132 ± 37.3 µM | IC50 ([2]; stage II-III gametocytes): 78.1 ± 17.7 µM | IC50 [5]: 4 µM

IC50 [3, 18]: > 50 µM | IC50 [4, 19]: > 50 µM
Compound: Cc1cc(/C=c2/sc3nc4ccccc4n3c2=O)c(C)n1-c1ccccc1 [ITX3]
antimalarial activity (in words) [3]: no effect | IC50 [9]: 50 to 100 µM

Compound: CC1CCCN(S(=O)(=O)c2cccc(NC(=O)c3cc(-c4ccccc4O)n[nH]3)c2)C1 (stereo not drawn) [Compound 3′]
IC50 ([3]; Plasmodium falciparum, D10, 72 h, asexual parasites, CQ-sensitive D10 strain, 72 h, pLDH, read-out: Mean IC50 ± SD, D10): 2.76 ± 0.12 µM | IC50 [4, 21]: 1.24 ± 0.13 µM | IC50 [1, 16]: 26.6 ± 3.7 µM | IC50 [8, 22]: 16 ± 0.44 µM | SI (selectivity index) [8]: 5.8 | IC50 [2, 17]: 2.13 ± 0.43 µM

IC50 [3, 18]: 10.7 ± 0.29 µM | IC50 [4, 19]: 17.3 ± 1.84 µM
Compound: COc1ccc(C2CC(c3ccccc3)=NN2c2ccc(S(N)(=O)=O)cc2)cc1 (stereo not drawn) [ML141]
IC50 [10]: ~10 µM

Compound: CCN(CC)CCCC(C)Nc1ccnc2cc(Cl)ccc12 (stereo not drawn) [Chloroquine]
IC50 ([3]; Plasmodium falciparum, D10, 72 h, read-out: Mean IC50 ± SD, D10): 0.02 ± 0.003 µM | IC50 ([4]; Plasmodium falciparum, W2, 72 h, read-out: Mean IC50 ± SD, W2): 0.42 ± 0.08 µM

Compound: Cc1cc(C)nc(NS(=O)(=O)c2ccc(NC(=S)NC(=O)COc3ccc(Br)cc3Cl)cc2)n1 [ZCL278]
antimalarial activity (in words) [3]: not active | IC50 [3, 18]: > 50 µM | IC50 [4, 19]: > 50 µM | IC50 ([1]; Table S2, CDC42 inhibitors, read-out: IC50, 3D7 mature gametocytes): 63.5 ± 27.3 µM

IC50 [3, 18]: 6.89 ± 0.73 µM | IC50 [4, 19]: 9.51 ± 1.66 µM
Compound: O=C(C#Cc1ccccc1)c1cccc([N+](=O)[O-])c1 [MLS000532223]
IC50 [11]: ~10 µM

Compound: O=c1cc(CN2CCOCC2)occ1OCCCCCSc1ccnc2cc(C(F)(F)F)ccc12 [EHT1864]
IC50 [6]: 7.75 ± 1.82 µM | IC50 [7]: 3.88 ± 0.74 µM | IC50 [1, 20]: 32.6 ± 0.92 µM | IC50 [12]: 10 to 50 µM | IC50 ([8]; MTT, 72 h): 48.5 ± 1.23 µM | IC50 ([2]; stage II-III gametocytes): > 50 µM

Compound: CCN(CC)CCCC(C)Nc1nc(C)cc(Nc2ccc3nc(C)cc(N)c3c2)n1 (stereo not drawn) [NSC23766]
IC50 [3, 18]: 5.02 ± 1.47 µM | IC50 [4, 19]: 4.05 ± 0.5 µM | IC50 [13]: […] | IC50 [1, 20]: 30.8 ± 3.09 µM | IC50 ([8]; MTT, 72 h): 154 ± 38.5 µM | IC50 ([2]; stage II-III gametocytes): 15.3 ± 3.7 µM

Compound: Cc1cc2cc(Nc3ccnc(Nc4ccc5[nH]c(C)cc5c4)n3)ccc2[nH]1 [Aza-1]
IC50 [4, 21]: < 1 µM | IC50 [4, 19]: 0.76 ± 0.27 µM | IC50 [1, 16]: 7.23 ± 2.12 µM | IC50 [8, 22]: 12.3 ± 6.11 µM | SI (selectivity index) [8]: 48.9 | IC50 [14]: 5 to 20 µM | IC50 [2, 17]: 1.25 ± 0.48 µM

IC50 [3, 18]: 11.9 ± 7.37 µM | IC50 [4, 19]: 37.5 ± 8.67 µM
Compound: Cc1ccc(NC(=O)c2cccc(OCc3c(C)noc3C)c2)cc1S(N)(=O)=O [Rac1 inhibitor II]
IC50 [15]: 12.2 µM

Compound: CC1CCCN(S(=O)(=O)c2ccc(NC(=O)c3cc(-c4ccccc4O)n[nH]3)cc2)C1 (stereo not drawn) [Compound 3]
IC50 ([3]; Plasmodium falciparum, D10, 72 h, read-out: Mean IC50 ± SD, D10, asexual parasites, CQ-sensitive D10 strain, 72 h, pLDH): < 1 µM | IC50 ([3]; read-out: Mean IC50 ± SD, D10, asexual parasites, CQ-sensitive D10 strain, 72 h, pLDH): 0.66 ± 0.05 µM | melting point: 254 to 258 °C | IC50 ([4]; Plasmodium falciparum, W2, 72 h, read-out: Mean IC50 ± SD, W2, asexual parasites, CQ-resistant W2 strain, 72 h, pLDH): < 1 µM | IC50 ([4]; read-out: Mean IC50 ± SD, W2, asexual parasites, CQ-resistant W2 strain, 72 h, pLDH): 0.52 ± 0.02 µM | IC50 [1, 16]: 21.9 ± 2.71 µM | IC50 ([8]; Homo sapiens, HMEC-1, 72 h): 10.6 ± 1.19 µM | IC50 [2, 17]: 2.26 ± 0.22 µM
